Results as given in patent US11542283B2, “Synthesis of peptide borate ester compound and use thereof” (JIANGSU CHIA TAI FENGHAI PHARMACEUTICAL CO., LTD., priority 2018, dated 2023).
Read-outs that look alike come from different tables or passages of the source.

Tests used:
[1] = In-vivo pharmacokinetic evaluation in SD rats; details: male SD rats; for AUC(0-t) / MRT last / half-life / bioavailability: rat, plasma; for AUC(0-t) / MRT last / half-life / CL_obs / Vz_obs: 2.0 mg/kg; for bioavailability: oral, p.o. 2.0 mg/kg vs i.v. 2.0 mg/kg, read-out: F (oral bioavailability); for CL_obs / Vz_obs: i.v.
Procedure: Twelve male SD rats weighing 220±20g, were randomly divided into four groups.
Two groups were respectively given IV-9 and V-9A by tail vein injection at doses given in a table below, and before and 10 min, 20 min. 30 min, 1 h, 2 h, 4 h, 8 h, 12 h, 24 h and 36 h after administration, about 0.200 mL of blood was collected from the jugular vein, placed in a test tube containing EDTA-K2, and centrifuged at a high speed (7800×g) for 15 min. The plasma was separated, and stored at −15° C. to −35° C. The pharmacokinetic differences of IV-9 and V-9A administered by intravenous injection were compared.
The other two groups were respectively given IV-9 and V-9A by oral gavage at doses given in a table below, and before and 5 min, 10 min, 20 min, 30 min, 1 h, 2 h, 4 h, 8 h, 12 h, 24 h and 36 h after administration, about 0.200 mL of blood was collected from the jugular vein, placed in a test tube containing EDTA-K2, and centrifuged at a high speed (7800×g) for 15 min. The plasma was separated, and stored at −15° C. to −35° C. The pharmacokinetic differences of IV-9 and V-9A administered by oral gavage were compared.

ARH-77 xenograft tumors = experiment: Evaluation in animal model of xenotransplantation (ARH-77 xenograft); format: in vivo, Balb/c nude mice; details: oral; for RTV Mean / T/C / TGI (tumor inhibition rate) / TV Mean: three weeks
Procedure: The human multiple myeloma cell line ARH-77 was used to implant tumors under the skin of Balb/enude mice to establish a transplanted tumor model. The specific experimental process is as follows.
1. 4-6 week-old Balb/c nude mice purchased from Shanghai Bikai Laboratory Animal Co., Ltd., were transferred to a barrier system to adapt to the environment for one week.
2. The cells were cultured to the logarithmic growth phase, digested, centrifuged, re-suspended in Matrigel at a density of 1×10^7 cells/ml, and placed on ice for later use. In the barrier system, the tumor cells were inoculated into the axilla of the animal's right forelimb in an amount of 1×10^6 cells per animal, and the inoculation volume for each animal was 100 microliters.
3. The animals were grown and the tumor volume was measured by a vernier caliper. When the average volume was increased to 100-150 mm^3, the animals were randomly divided into three groups including a blank control group, a positive drug group (Compound MLN-9708) and an experimental group […]), each group having 6 animals.
The formula for calculating tumor volume is: Volume(mm3)=0.5×(Length(mm)×Width(mm)2)
4. The compound used was formulated with a 5% R-sulfobutyl cyclodextrin sodium aqueous solution to give an appropriate concentration, ultrasonicated until the solution became clear, and then stored in a refrigerator at 4° C. for later use.
5. The mice were orally administered. The frequency of administration for the positive drug group was twice a week, and the dosage was 5 mg/kg. The mice in the experimental group were administered daily, and the dosage was 1 mg/kg. The administration was continuous for three weeks, and then the mice were sacrificed to end the experiment. During this process, the tumor volume was measured and recorded twice a week. The inhibitory effect of agents on tumor growth was calculated by the GraphPad Prism software.

[2] = molecular target: proteasome activity in blood cells (Mus musculus (Mouse), UniProt O55234); experiment: In-vivo pharmacodynamics: proteasome activity in blood cells; details: ICR mice, oral single dose 2 mg/kg
Chain of proteasome activity in blood cells (O55234 60-264): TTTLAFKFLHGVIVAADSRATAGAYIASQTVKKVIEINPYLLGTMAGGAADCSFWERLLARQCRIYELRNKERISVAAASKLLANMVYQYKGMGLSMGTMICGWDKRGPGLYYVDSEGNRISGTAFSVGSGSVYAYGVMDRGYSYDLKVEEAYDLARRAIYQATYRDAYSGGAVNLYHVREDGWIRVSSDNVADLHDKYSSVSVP
Procedure: The compound designed in the present invention can be used to treat malignant tumors of the blood system, so the efficacy of the compound was evaluated by detecting the activity of the proteasome in the blood after single administration, and the in-vivo pharmacodynamic study can be carried out by blood sampling at different time points.
1. 8 week-old ICR mice purchased from Shanghai Bikai Laboratory Animal Co., Ltd., were transferred to a barrier system to adapt to the environment for one week.
2. The animals were divided into three groups, including a positive control group (MLN9708) and two experimental groups (IV-9, V-9A), each group having 3 animals.
3. Before administration, 100 μL of blood was sampled from each animal from the orbital venus plexus and used as the blank control, and the proteasome activity measured in blood cells in this sample was taken as 100%. 1 and 24 hrs after administration, blood was sampled from the orbital venus plexus, and the proteasome activity in blood cells was detected. The inhibitory effect of the drug on proteasome activity and recovery of proteasome activity in blood was obtained by comparison with the data at time 0.
4. […]
5. […] A cell lysing solution was added for protein quantification to correct the detected value. […] The dilution was further reacted with the fluorescent peptide substrate to detect the proteasome activity on a microplate reader.

[3] = molecular target: human erythrocyte 20S proteasome (Homo sapiens (Human), UniProt P28074); experiment: Assay of inhibition on proteasome activity (chymotrypsin-like, Suc-LLVY-AMC substrate); format: biochemical
From the text: The proteasome used in the present invention is human erythrocyte 20S proteasome, and the enzyme, fluorescent substrate and test buffer are all purchased from Enzo.

In the case of `CSC[C@H](NC(=O)c1cc(Cl)ccc1Cl)C(=O)N[C@@H](CC(C)C)B1OCCNCCO1` [Compound V-9A, (R)-diethanolamine N-(2,5-dichlorobenzoyl)-3-methylmercaptopropionamido-D-leucine borate], the AUC(0-t) ([1]; Sprague-Dawley (SD), iv) is reported as 2550 ng·h/mL, the MRT last ([1]; Sprague-Dawley (SD), iv) is reported as 2.18 h and the half-life ([1]; Sprague-Dawley (SD), iv) is reported as 3.1 h. For the same molecule, the bioavailability ([1]; Sprague-Dawley (SD)) was 24.9%, the AUC(0-t) ([1]; Sprague-Dawley (SD), po) was 634 ng·h/mL and the MRT last ([1]; Sprague-Dawley (SD), po) was 3.37 h. It also gave a half-life ([1]; Sprague-Dawley (SD), po) of 2.88 h, a CL_obs [1] of 11.2 mL/min/kg and a Vz_obs [1] of 3.01 L/kg. For the same molecule, the “TW Mean (Day 21)” value (ARH-77 xenograft tumors; 1 mg/kg daily) was 0.65 g, the “RTV Mean” value (ARH-77 xenograft tumors; 1 mg/kg daily) was 3.72 and the T/C (ARH-77 xenograft tumors; 1 mg/kg daily) was 24.02%. For the same molecule, the “TGI (tumor inhibition rate)” value (ARH-77 xenograft tumors; 1 mg/kg daily) was 63.48%, the “TV Mean” value (ARH-77 xenograft tumors; 1 mg/kg daily) was 354.78 mm^3 and the “inhibitory activity on proteasome in blood cells” value ([2]; 1 hr after administration, compared with MLN9708 5 mg/kg) was “even better inhibitory activity”. For the same molecule, the “proteasome activity in blood cells recovered, of the activity in the control group” value ([2]; 24 hrs after administration) was 40% and the IC50 [3] was 5.69 nM.

`CSC[C@H](NC(=O)c1cc(Cl)ccc1Cl)C(=O)N[C@@H](CC(C)C)B1OC(=O)CC(CC(=O)O)(C(=O)O)O1` (stereo partly drawn) [Compound V-9B, (R)-N-(2,5-dichlorobenzoyl)-3-methylmercaptopropionamido-D-leucine borate citratte] gave an IC50 [3] of 6.6 nM.

With `CSC[C@H](NC(=O)c1cc(Cl)ccc1Cl)C(=O)N[C@@H](CC(C)C)B(O)O` [IV-9] the CL_obs [1] was 16.4 mL/min/kg, the Vz_obs [1] was 2.914 L/kg and the AUC(0-t) ([1]; iv) was 1890 ng·h/mL. For the same molecule, the MRT last ([1]; iv) was 1.55 h, the half-life ([1]; iv) was 2.08 h and the bioavailability [1] was 11%. For the same molecule, the AUC(0-t) ([1]; po) was 208 ng·h/mL, the MRT last ([1]; po) was 2.35 h and the half-life ([1]; po) was 2.14 h.

For `CC(C)C[C@H](NC(=O)CNC(=O)c1cc(Cl)ccc1Cl)B1OC(=O)CC(CC(=O)O)(C(=O)O)O1` (stereo partly drawn) [MLN9708, reference compound], the “TW Mean (Day 21)” value (ARH-77 xenograft tumors; 5 mg/kg twice a week) was 1.33 g, the “RTV Mean” value (ARH-77 xenograft tumors; 5 mg/kg twice a week) was 9.13 and the T/C (ARH-77 xenograft tumors; 5 mg/kg twice a week) was 58.94%. For the same molecule, the “TGI (tumor inhibition rate)” value (ARH-77 xenograft tumors; 5 mg/kg twice a week) was 25.28%, the “TV Mean” value (ARH-77 xenograft tumors; 5 mg/kg twice a week) was 1042.71 mm^3 and the “TGI (tumor inhibition rate)” value (ARH-77 xenograft tumors; 5 mg/kg twice a week, listed as MLN-9708) was 25.28%.
